Reference: patent US5043328A, “Formulations containing unsaturated fatty acids for the synthesis of prostaglandins and hydroxy-fatty acids in biological systems” (priority 1986, dated 1991)
Like-named read-outs stand apart in the source and are kept apart here. No end group written: not given here.

Target: T1, enzyme (from seminal vesicles of sheep) (Ovis aries, UniProt P05979)
T1 sequence (P05979 25-600): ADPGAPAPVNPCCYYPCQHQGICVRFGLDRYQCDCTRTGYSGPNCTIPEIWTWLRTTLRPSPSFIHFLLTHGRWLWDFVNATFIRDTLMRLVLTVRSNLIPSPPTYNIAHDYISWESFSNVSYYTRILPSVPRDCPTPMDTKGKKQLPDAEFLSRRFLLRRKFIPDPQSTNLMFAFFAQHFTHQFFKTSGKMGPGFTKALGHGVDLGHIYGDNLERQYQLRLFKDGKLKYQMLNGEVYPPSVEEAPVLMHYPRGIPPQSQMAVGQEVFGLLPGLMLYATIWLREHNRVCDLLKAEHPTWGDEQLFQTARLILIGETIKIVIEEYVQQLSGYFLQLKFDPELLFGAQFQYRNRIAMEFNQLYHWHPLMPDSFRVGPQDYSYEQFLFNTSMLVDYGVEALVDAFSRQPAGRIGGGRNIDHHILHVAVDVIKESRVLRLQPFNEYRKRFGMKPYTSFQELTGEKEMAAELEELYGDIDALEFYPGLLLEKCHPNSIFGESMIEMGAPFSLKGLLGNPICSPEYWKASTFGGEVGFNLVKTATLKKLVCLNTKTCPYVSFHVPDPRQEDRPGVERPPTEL
Settings: for stimulation of prostaglandin synthesis with much smaller quantities of undesired byproducts: mixtures with polyunsaturated fatty acids such as arachidonic acid
Experimental: Method 2: Prostaglandin Synthesis
0.3 ml of 0.03M potassium phosphate buffer of pH=8.0 contains 0.5 mg of enzyme (from seminal vesicles of sheep) (Biochemistry 10 (1971) 2372) or homogenate of the inner kidney medulla (Life Sciences 26 (1980) 765), 2.75 μg of ^14 C-arachidonic acid (0.5 μCi) and 0.5 mg of stimulator, and, if appropriate, 0.5 mg of stabilizer substance (see Table 1). After 10 minutes' incubation at 37° C., the reaction is stopped with 0.05 ml of 1.2M citric acid and the mixture is extracted with twice 0.5 ml of ethyl acetate, the combined extracts are freed of solvent, and the residue is dissolved in 0.2 ml of methanol, diluted 1:1 with water and separated by HPLC (nucleosil C-18 column, 125×4.6 mm, from Bischoff, Leonberg, Germany, solvent 300 ml of acetonitrile, 700 ml of water and 1 ml of glacial acetic acid and after 30 minutes pure methanol). The separation of the radioactive fractions is followed by a monitor (LB 504 from Berthold, Wildbad, Germany). The products formed, such as 6-keto-prostaglandin F2alpha, prostaglandin E2, prostaglandin F2alpha and prostaglandin D2, are separated under these conditions.
The prostaglandins PGE2, PGF2 alpha and PGD2 as products from arachidonic acid where quantified by means of method 2, and the sum was related as "total prostaglandin" to 100%. The quantity of "total prostaglandin" formed without the addition of a stimulator was set at f=1; the quantity formed after stimulation was related thereto. f=2 or f=3 therefore means twice or three times the stimulation under the conditions of method 2. The stability of the sample was investigated by means of method 1 (right-hand column). […] Values greater than 25-28% therefore represent a stabilization, and values smaller than 25-28% represent a destabilization. Example No. 1 was carried out without a stimulator. […] The substances test with respect to stabilization (see Method 1 for quantities) were: A) aqueous solution without stabilizer addition, B) ethanolic solution without further addition, C) pyridine solution, D) with rutin, predissolved in dimethyl sulfoxide, dimethyl sulfoxide then stripped off, E) like B) with lecithin, ethanol stripped off, F) like A) with cytochrome c from horse heart (from Boehringer, Mannheim, Germany), G) like A) with methemoglobin (human) (from Sigman, Munich, Germany), H) like A) with bovine serum albumin (from Calbiochem, Frankfurt, Germany), J) like A) or B), but solvent stripped off, K) like J) with cytochrome c, L) like J) with hemoglobin (human) (from Behringwerke, Marburg, Germany), and M) like J) with human serum albumin (from Behringwerke, Marburg, Germany).

[1] = seminal vesicle enzyme, 10 min, pH 8
[2] = Table 1, share of total prostaglandin (=100%)
[3] = Table 2, share of total prostaglandin
[4] = Table 1, 0.5 mg stimulator, 10 min 37° C., without stimulator f=1

`O=C(O)CCCC[C@@H](S)CCS` (racemic) [Example 42, Dihydrolipoic acid, reference compound] was tested, and the “stimulation of prostaglandin synthesis with much smaller quantities of undesired byproducts” value (“stimulation of prostaglandin synthesis” below) (result in words) was “not possible to achieve these advantageous effects” and the “relative total prostaglandin f” value [1] was 1.0.

`Cc1cccc(O)c1` [Example 2, m-cresol, reference compound] was tested, and the PGD2 % [2] was 2%, the PGE2 % [2] was 98% and the PGF2alpha % [2] was 0%.

Work on `Oc1ccccc1` [Example 3, phenol, reference compound] yielded a PGD2 % [2] of 18%, a PGE2 % [2] of 77% and a PGF2alpha % [2] of 5%.

Work on `N[C@@H](Cc1ccccc1)C(=O)O` [Example 4, L-phenylalanine, reference compound] yielded a PGD2 % [2] of 18%, a PGE2 % [2] of 80% and a PGF2alpha % [2] of 2%.

Compound `NCCc1ccc(O)cc1` [Example 7] has a PGD2 % [2] of 17%, a PGE2 % [2] of 80% and a PGF2alpha % [2] of 3%. The “relative total prostaglandin f” value [1] was 4,0.

In the case of `O=C(O)CCc1ccc(O)cc1` [Example 8], the PGD2 % [2] is reported as 16%, the PGE2 % [2] is reported as 83% and the PGF2alpha % [2] is reported as 1%.

Work on `NC(Cc1ccc(O)c(O)c1)C(=O)O` (stereo not shown) [Example 9] yielded a PGD2 % [2] of 16%, a PGE2 % [2] of 70% and a PGF2alpha % [2] of 14%. For the same compound, the “relative total prostaglandin f” value [1] was 9.4.

Work on `NCC(O)c1ccc(O)c(O)c1` (stereo not shown) [Example 12] yielded a PGD2 % [2] of 17%, a PGE2 % [2] of 66% and a PGF2alpha % [2] of 17%. The “relative total prostaglandin f” value [1] was 8.3.

Work on `CNCC(O)c1ccc(O)c(O)c1` (stereo not shown) [Example 13] yielded a PGD2 % [2] of 18%, a PGE2 % [2] of 70% and a PGF2alpha % [2] of 12%.

Work on `Oc1ccc(O)cc1` [Example 14] yielded a PGD2 % [2] of 19%, a PGE2 % [2] of 69% and a PGF2alpha % [2] of 12%.

In the case of `COc1cc(C(=O)O)ccc1O` [Example 15], the PGD2 % [2] is reported as 17%, the PGE2 % [2] is reported as 71% and the PGF2alpha % [2] is reported as 12%.

`O=C(O)c1ccc(O)cc1` [Example 16] gave a PGD2 % [2] of 18%, a PGE2 % [2] of 69% and a PGF2alpha % [2] of 13%.

In the case of `NC(Cc1c[nH]c2ccccc12)C(=O)O` (stereo not shown) [Example 18], the PGD2 % [2] is reported as 21%, the PGE2 % [2] is reported as 76% and the PGF2alpha % [2] is reported as 3%. The “relative total prostaglandin f” value [1] was 9.8.

`NC(Cc1c[nH]c2ccc(O)cc12)C(=O)O` (stereo not shown) [Example 19] was tested, and the PGD2 % [2] was 18%, the PGE2 % [2] was 79% and the PGF2alpha % [2] was 3%. The “relative total prostaglandin f” value [1] was 10.1.

Work on `O=C(O)CCc1c[nH]c2ccccc12` [Example 20] yielded a PGD2 % [2] of 16%, a PGE2 % [2] of 82% and a PGF2alpha % [2] of 2%.

For `N[C@H](CS)C(=O)O` [Example 34, D-cysteine], the PGD2 % [2] was 23%, the PGE2 % [2] was 63% and the PGF2alpha % [2] was 14%.

`CC(=O)NC(CS)C(=O)O` (stereo not shown) [Example 37, NAcetylcysteine] showed a PGD2 % [2] of 25%, a PGE2 % [2] of 61% and a PGF2alpha % [2] of 14%.

`O[C@H](CS)[C@H](O)CS` [Example 39, Dithiothreitol, reference compound] was tested, and the “stimulation of prostaglandin synthesis” value (result in words) was “not possible to achieve these advantageous effects” and the “relative total prostaglandin f” value [1] was 0.8.

For `O[C@H](CS)[C@@H](O)CS` [Example 40, Dithioerythritol, reference compound], the “stimulation of prostaglandin synthesis” value (result in words) was “not possible to achieve these advantageous effects” and the “relative total prostaglandin f” value [1] was 0.85.

`N[C@@H](CSSC[C@H](N)C(=O)O)C(=O)O` [Example 41, Cystine, reference compound] was tested, and the PGD2 % [2] was 15%, the PGE2 % [2] was 85% and the PGF2alpha % [2] was 0%. The “stimulation of prostaglandin synthesis” value (result in words) was “not possible to achieve these advantageous effects” and the “relative total prostaglandin f” value [1] was 1.0.

With `NCCS` [Example 43, Cysteamine, reference compound] the “stimulation of prostaglandin synthesis” value (result in words) was “not possible to achieve these advantageous effects” and the “relative total prostaglandin f” value [1] was 0.9.

With `CC(C)(COP(=O)(O)OP(=O)(O)OC[C@H]1O[C@@H](n2cnc3c(N)ncnc32)[C@H](O)[C@@H]1OP(=O)(O)O)[C@@H](O)C(=O)NCCC(=O)NCCS` [Example 45, Coenzyme A, reference compound] the “stimulation of prostaglandin synthesis” value (result in words) was “not possible to achieve these advantageous effects” and the “relative total prostaglandin f” value [1] was 1.0.

With `CC(C)(CO)[C@@H](O)C(=O)NCCC(=O)NCCS` [Example 46, Pantetheine, reference compound] the “stimulation of prostaglandin synthesis” value (result in words) was “not possible to achieve these advantageous effects” and the “relative total prostaglandin f” value [1] was 0.95.

Compound `CC1=C(C)C(=O)C(CC[C@](C)(O)CCC[C@H](C)CCC[C@H](C)CCCC(C)C)=C(C)C1=O` [Example 51, D-alpha-Tocopheryl-quinone] has a PGD2 % [3] of 15%, a PGE2 % [3] of 80% and a PGF2alpha % [3] of 5%.

`C[C@@H]1O[C@@H](OC[C@H]2O[C@@H](Oc3c(-c4ccc(O)c(O)c4)oc4cc(O)cc(O)c4c3=O)[C@H](O)[C@@H](O)[C@@H]2O)[C@H](O)[C@H](O)[C@H]1O` [Example 52, Rutin] was tested, and the PGD2 % [3] was 18%, the PGE2 % [3] was 76% and the PGF2alpha % [3] was 6%. For the same compound, the “relative total prostaglandin f” value [1] was 6.

In the case of `O=c1c(O)c(-c2ccc(O)c(O)c2)oc2cc(O)cc(O)c12` [Example 57, Quercetin], the PGD2 % [3] is reported as 10%, the PGE2 % [3] is reported as 72% and the PGF2alpha % [3] is reported as 18%. The “relative total prostaglandin f” value [1] was 0.3.

`Oc1cc(O)c2c(c1)OC(c1ccc(O)c(O)c1)C(O)C2` (stereo not shown) [Example 58, Catechin] showed a PGD2 % [3] of 12%, a PGE2 % [3] of 70% and a PGF2alpha % [3] of 18%.

Compound `O=C(CCc1ccc(O)cc1)c1c(O)cc(O)cc1O` [Example 60, Phloretin] has a PGD2 % [3] of 13%, a PGE2 % [3] of 76% and a PGF2alpha % [3] of 11%.

`O=c1c(O)c(-c2ccc(O)cc2O)oc2cc(O)cc(O)c12` [Example 61, Morin] was tested, and the PGD2 % [3] was 19%, the PGE2 % [3] was 54% and the PGF2alpha % [3] was 27%.

In the case of `N[C@@H](CS)C(=O)O` [cysteine], the “stimulation of prostaglandin synthesis” value (result in words) is reported as “stimulated”.

`N[C@@H](CCS)C(=O)O` [homocysteine] was tested, and the “stimulation of prostaglandin synthesis” value (result in words) was “stimulated”.

For GlyTrpGly [Example 25], the “relative total prostaglandin f” value [4] was 13.0, the PGD2 % [2] was 20% and the PGE2 % [2] was 79%. For the same compound, the PGF2alpha % [2] was 1%.

In the case of LeuTrp [Example 27], the “relative total prostaglandin f” value [4] is reported as 17.0, the PGD2 % [2] is reported as 22% and the PGE2 % [2] is reported as 77%. It also gave a PGF2alpha % [2] of 1%.

For LeuTrpMet [Example 29], the “relative total prostaglandin f” value [4] was 10.8, the PGD2 % [2] was 22% and the PGE2 % [2] was 69%. For the same compound, the PGF2alpha % [2] was 9%.

TrpAla [Example 26] was tested, and the “relative total prostaglandin f” value [4] was 12.6, the PGD2 % [2] was 22% and the PGE2 % [2] was 77%. For the same compound, the PGF2alpha % [2] was 1%.

With TrpTrp [Example 24] the “relative total prostaglandin f” value [4] was 11.7, the PGD2 % [2] was 23% and the PGE2 % [2] was 75%. The PGF2alpha % [2] was 2%.

In the case of TyrTrp [Example 31], the “relative total prostaglandin f” value [4] is reported as 6.3, the PGD2 % [2] is reported as 14% and the PGE2 % [2] is reported as 73%. For the same compound, the PGF2alpha % [2] was 3%.

For TyrTyrTyrOCH3 [Example 30], the “relative total prostaglandin f” value [4] was 5.3, the PGD2 % [2] was 11% and the PGE2 % [2] was 75%. For the same compound, the PGF2alpha % [2] was 4%.

For YCEHFRWG [Example 38], the Stimulation (Table 1, result in words) was “positive”.
